Like-named read-outs stand apart in the source and are kept apart here.
What was measured:
Type in all cases: cell-based, Escherichia coli
EKO-35 araC::acrEF = test: MIC susceptibility profiling, efflux platform; details: for Fold change of MICs: EKO-35 araC::acrEF compared to EKO-35
Outline: (§1)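 Overnight LB cultures (37 °C, 18 h) were resuspended in PBS pH 7.4 to OD600 ~1.0 and diluted 1/2000 into MHB II. Strains were exposed to 2-fold serial compound dilutions in duplicate for 18 h at 37 °C with shaking. MIC was read from OD600 after subtracting pre-incubation background.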

EKO-35 araC::acrD = test: MIC susceptibility profiling, efflux platform; details: for Fold change of MICs: EKO-35 araC::acrD compared to EKO-35
Outline: as §1

EKO-35 araC::emrAB = test: MIC susceptibility profiling, efflux platform; details: for Fold change of MICs: EKO-35 araC::emrAB compared to EKO-35
Outline: as §1

EKO-35 araC::mdtEF = test: MIC susceptibility profiling, efflux platform; details: for Fold change of MICs: EKO-35 araC::mdtEF compared to EKO-35
Outline: as §1

EKO-35 araC::macAB = test: MIC susceptibility profiling, efflux platform; details: for Fold change of MICs: EKO-35 araC::macAB compared to EKO-35
Outline: as §1

EKO-35 araC::mdtBC = test: MIC susceptibility profiling, efflux platform; details: for Fold change of MICs: EKO-35 araC::mdtBC compared to EKO-35
Outline: as §1

EKO-35 araC::acrB = test: MIC susceptibility profiling, efflux platform; details: for Fold change of MICs: EKO-35 araC::acrB compared to EKO-35
Outline: as §1

EKO-35 araC::acrBD408A = test: MIC susceptibility profiling, efflux platform; details: for Fold change of MICs: EKO-35 araC::acrBD408A compared to EKO-35
Outline: as §1

[1] = tested on: EKO-35 araC::mexCD (MexCD from P. aeruginosa); test: MIC susceptibility profiling, efflux platform; details: for Fold change of MICs: EKO-35 araC::mexCD compared to EKO-35
Outline: as §1

EKO-35 araC::emrKY = test: MIC susceptibility profiling, efflux platform; details: for Fold change of MICs: EKO-35 araC::emrKY compared to EKO-35
Outline: as §1

EKO-35 araC::mdtEF Pore = test: MIC susceptibility profiling, porinated efflux platform
Outline: (§2)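 MIC values come from background-corrected OD600 readings (pre-incubation OD subtracted) after 18 h at 37 °C and 900 rpm in MHB II. Compounds were tested in duplicate as 2-fold dilutions. The inoculum came from 18 h LB cultures adjusted to OD600 ~1.0 and diluted 1/2000, and the pore-bearing strains were vancomycin-checked beforehand.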

EKO-35 araC::acrEF Pore = test: as above
Outline: as §2

EKO-35 araC::macAB Pore = test: as above; details: for Fold changes of MICs: EKO-35 araC::macAB Pore compared to EKO-35-Pore
Outline: as §2

EKO-35 araC::emrKY Pore = test: as above; details: for Fold changes of MICs: EKO-35 araC::emrKY Pore compared to EKO-35-Pore
Outline: as §2

wild-type (WT) K-12-Pore = test: microbe, parasite or virus in culture; details: technical duplicate; for MIC: Escherichia coli
Outline: as §2

ΔtolC-Pore = test: microbe, parasite or virus in culture; details: for Minimum inhibitory concentration (MIC), Pore ΔtolC: Table 10, with pore
Outline: as §2

E. coli EKO-35 = test: microbe, parasite or virus in culture; details: for Fold change of MICs: EKO-35 compared to EKO-35 (reference); for MIC: Escherichia coli, EKO35
Outline: as §1

E. coli ΔtolC = test: microbe, parasite or virus in culture; details: for Minimum inhibitory concentration (MIC), ΔtolC: Table 10, without pore
Outline: as §1

[2] = tested on: wild-type E. coli K-12 str. BW25113; test: microbe, parasite or virus in culture; details: technical duplicate; for MIC: Escherichia coli, BW25113
Outline: as §1

[3] = Table 13A, non-porinated, technical duplicate
[4] = Table 13B, non-porinated, technical duplicate
[5] = Table 14A, porinated, technical duplicate

O=C(N[C@H](CO)[C@H](O)c1ccc([N+](=O)[O-])cc1)C(Cl)Cl [chloramphenicol]
Fold change of MICs (EKO-35 araC::acrEF): 2 fold | MIC (EKO-35 araC::acrEF; Escherichia coli, Table 13A, non-porinated, technical duplicate, read-out: Minimum Inhibitory Concentration, EKO-35 araC::acrEF): 1.56 µg/mL | Fold change of MICs (EKO-35 araC::acrD): 2 fold | MIC (EKO-35 araC::acrD; Escherichia coli, Table 13A, non-porinated, technical duplicate, read-out: Minimum Inhibitory Concentration, EKO-35 araC::acrD): 1.56 µg/mL | Fold change of MICs (EKO-35 araC::emrAB): 1 fold | MIC (EKO-35 araC::emrAB; Escherichia coli, Table 13B, non-porinated, technical duplicate, read-out: Minimum Inhibitory Concentration, EKO-35 araC::emrAB): 0.781 µg/mL | Fold change of MICs (EKO-35 araC::mdtEF): 1 fold | MIC (EKO-35 araC::mdtEF; Escherichia coli, Table 13A, non-porinated, technical duplicate, read-out: Minimum Inhibitory Concentration, EKO-35 araC::mdtEF): 0.781 µg/mL | Fold change of MICs (EKO-35 araC::macAB): 1 fold | MIC (EKO-35 araC::macAB; Escherichia coli, Table 13B, non-porinated, technical duplicate, read-out: Minimum Inhibitory Concentration, EKO-35 araC::macAB): 0.781 µg/mL | Fold change of MICs (EKO-35 araC::mdtBC): 1 fold | MIC (EKO-35 araC::mdtBC; Escherichia coli, Table 13B, non-porinated, technical duplicate, read-out: Minimum Inhibitory Concentration, EKO-35 araC::mdtBC): 0.781 µg/mL | Fold change of MICs (EKO-35 araC::acrB): 8 fold | MIC (EKO-35 araC::acrB; Escherichia coli, Table 13A, non-porinated, technical duplicate, read-out: Minimum Inhibitory Concentration, EKO-35 araC::acrB): 6.25 µg/mL | Fold change of MICs (EKO-35 araC::acrBD408A): 1 fold | MIC (EKO-35 araC::acrBD408A; Escherichia coli, Table 13B, non-porinated, technical duplicate, read-out: Minimum Inhibitory Concentration, EKO-35 araC::acrBD408A): 0.781 µg/mL | Fold change of MICs [1]: 1 fold | MIC ([1]; Table 13B, non-porinated, technical duplicate, read-out: Minimum Inhibitory Concentration, EKO-35 araC::mexCD): 0.781 µg/mL | Fold change of MICs (EKO-35 araC::emrKY): 1 fold | MIC (EKO-35 araC::emrKY; Escherichia coli, Table 13B, non-porinated, technical duplicate, read-out: Minimum Inhibitory Concentration, EKO-35 araC::emrKY): 0.391 µg/mL | Fold changes of MICs (EKO-35 araC::mdtEF Pore; EKO-35 araC::mdtEF Pore compared to EKO-35-Pore): 1 fold | MIC (EKO-35 araC::mdtEF Pore; Escherichia coli, Table 14A, porinated, technical duplicate, read-out: Minimum inhibitory concentration, EKO-35 araC::mdtEF Pore): 0.781 µg/mL | Fold changes of MICs (EKO-35 araC::acrEF Pore; EKO-35 araC::acrEF Pore compared to EKO-35-Pore): 1 fold | MIC (EKO-35 araC::acrEF Pore; Escherichia coli, Table 14A, porinated, technical duplicate, read-out: Minimum inhibitory concentration, EKO-35 araC::acrEF Pore): 0.781 µg/mL | Fold changes of MICs (EKO-35 araC::macAB Pore): 1 fold | MIC (EKO-35 araC::macAB Pore; Escherichia coli, EKO-35 araC::macAB Pore, technical duplicate, read-out: Minimum inhibitory concentration): 0.781 µg/mL | Fold changes of MICs (EKO-35 araC::emrKY Pore): 1 fold | MIC (EKO-35 araC::emrKY Pore; Escherichia coli, EKO-35 araC::emrKY Pore, technical duplicate, read-out: Minimum inhibitory concentration): 0.391 µg/mL | MIC (wild-type (WT) K-12-Pore; Table 10, with pore, read-out: Minimum inhibitory concentration (MIC), Pore K-12): 3.12 µg/mL | MIC (wild-type (WT) K-12-Pore; Table 14A, porinated, read-out: Minimum inhibitory concentration, K-12 (WT)-Pore): 3.12 µg/mL | MIC (ΔtolC-Pore; Escherichia coli, 18 h, read-out: Minimum inhibitory concentration, ΔtolC-Pore): 0.781 µg/mL | Minimum inhibitory concentration (MIC), Pore ΔtolC (ΔtolC-Pore; technical duplicate): 0.781 µg/mL | Fold change of MICs (E. coli EKO-35): 1 fold | MIC (E. coli EKO-35; Table 10, without pore, technical duplicate, read-out: Minimum inhibitory concentration (MIC), EKO-35): 0.781 µg/mL | MIC (E. coli EKO-35; Table 13A, non-porinated, technical duplicate, read-out: Minimum Inhibitory Concentration, EKO-35): 0.781 µg/mL | MIC (E. coli ΔtolC; Escherichia coli, 18 h, read-out: Minimum Inhibitory Concentration, ΔtolC): 1.56 µg/mL | Minimum inhibitory concentration (MIC), ΔtolC (E. coli ΔtolC; technical duplicate): 1.563 µg/mL | MIC ([2]; Table 10, without pore, read-out: Minimum inhibitory concentration (MIC), K-12): 6.5 µg/mL | MIC ([2]; Table 13A, non-porinated, read-out: Minimum Inhibitory Concentration, K-12): 6.25 µg/mL

CC(C)(C)c1cc(C(=O)NNC(=O)Nc2cccc3ccccc23)n(Cc2ccc(F)cc2)n1 [compound 4]
Fold change of MICs (EKO-35 araC::acrEF): 16 fold | Minimum Inhibitory Concentration, EKO-35 araC::acrEF (EKO-35 araC::acrEF; [3]): 320 µg/mL | Fold change of MICs (EKO-35 araC::acrD): 16 fold | Minimum Inhibitory Concentration, EKO-35 araC::acrD (EKO-35 araC::acrD; [3]): 320 µg/mL | Fold change of MICs (EKO-35 araC::emrAB): 16 fold | Minimum Inhibitory Concentration, EKO-35 araC::emrAB (EKO-35 araC::emrAB; [4]): 320 µg/mL | Fold change of MICs (EKO-35 araC::mdtEF): 16 fold | Minimum Inhibitory Concentration, EKO-35 araC::mdtEF (EKO-35 araC::mdtEF; [3]): 320 µg/mL | Fold change of MICs (EKO-35 araC::macAB): 1 fold | Minimum Inhibitory Concentration, EKO-35 araC::macAB (EKO-35 araC::macAB; [4]): 20 µg/mL | Fold change of MICs (EKO-35 araC::mdtBC): 1 fold | Minimum Inhibitory Concentration, EKO-35 araC::mdtBC (EKO-35 araC::mdtBC; [4]): 20 µg/mL | Fold change of MICs (EKO-35 araC::acrB): 16 fold | Minimum Inhibitory Concentration, EKO-35 araC::acrB (EKO-35 araC::acrB; [3]): 320 µg/mL | Fold change of MICs (EKO-35 araC::acrBD408A): 1 fold | Minimum Inhibitory Concentration, EKO-35 araC::acrBD408A (EKO-35 araC::acrBD408A; [4]): 20 µg/mL | Fold change of MICs [1]: 16 fold | Minimum Inhibitory Concentration, EKO-35 araC::mexCD [1, 4]: 320 µg/mL | Fold change of MICs (EKO-35 araC::emrKY): 1 fold | Minimum Inhibitory Concentration, EKO-35 araC::emrKY (EKO-35 araC::emrKY; [4]): 20 µg/mL | Minimum inhibitory concentration, EKO-35 araC::mdtEF Pore (EKO-35 araC::mdtEF Pore; [5]): 320 µg/mL | Minimum inhibitory concentration, EKO-35 araC::acrEF Pore (EKO-35 araC::acrEF Pore; [5]): 320 µg/mL | Fold changes of MICs (EKO-35 araC::macAB Pore): 2 fold | Minimum inhibitory concentration (EKO-35 araC::macAB Pore; EKO-35 araC::macAB Pore, technical duplicate): 5 µg/mL | Fold changes of MICs (EKO-35 araC::emrKY Pore): 1 fold | Minimum inhibitory concentration (EKO-35 araC::emrKY Pore; EKO-35 araC::emrKY Pore, technical duplicate): 1.25 µg/mL | Minimum inhibitory concentration (MIC), Pore K-12 (wild-type (WT) K-12-Pore; Table 10, with pore): 320 µg/mL | Minimum inhibitory concentration, K-12 (WT)-Pore (wild-type (WT) K-12-Pore; Table 14A, porinated): 320 µg/mL | Minimum inhibitory concentration (MIC), Pore ΔtolC (ΔtolC-Pore; technical duplicate): 1.25 µg/mL | Minimum inhibitory concentration, ΔtolC-Pore (ΔtolC-Pore; [5]): 1.25 µg/mL | Fold change of MICs (E. coli EKO-35): 1 fold | Minimum inhibitory concentration (MIC), EKO-35 (E. coli EKO-35; Table 10, without pore, technical duplicate): 20 µg/mL | Minimum Inhibitory Concentration, EKO-35 (E. coli EKO-35; [3]): 20 µg/mL | susceptibility of EKO-35 to the compound (E. coli EKO-35; synthetic efflux substrates of FIG. 12): susceptible | Minimum inhibitory concentration (MIC), ΔtolC (E. coli ΔtolC; technical duplicate): 10 µg/mL | Minimum Inhibitory Concentration, ΔtolC (E. coli ΔtolC; [3]): 10 µg/mL | Minimum inhibitory concentration (MIC), K-12 ([2]; Table 10, without pore): 320 µg/mL | Minimum Inhibitory Concentration, K-12 ([2]; Table 13A, non-porinated): 320 µg/mL
